Measured values from ChEMBL document CHEMBL5052841, “Usp19 inhibitors for use in therapy” (2020).

What follows are compounds tested against T1, Ubiquitin carboxyl-terminal hydrolase 19 (Homo sapiens, UniProt O94966) (assay: Inhibition of C-terminal His6-tagged recombinant human USP19 using iso-peptide ubiquitin-Lys-TAMRA as substrate incubated for 30 mins and measured after 90 mins by fluorescent polarization assay).
T1 sequence (O94966 whole entry): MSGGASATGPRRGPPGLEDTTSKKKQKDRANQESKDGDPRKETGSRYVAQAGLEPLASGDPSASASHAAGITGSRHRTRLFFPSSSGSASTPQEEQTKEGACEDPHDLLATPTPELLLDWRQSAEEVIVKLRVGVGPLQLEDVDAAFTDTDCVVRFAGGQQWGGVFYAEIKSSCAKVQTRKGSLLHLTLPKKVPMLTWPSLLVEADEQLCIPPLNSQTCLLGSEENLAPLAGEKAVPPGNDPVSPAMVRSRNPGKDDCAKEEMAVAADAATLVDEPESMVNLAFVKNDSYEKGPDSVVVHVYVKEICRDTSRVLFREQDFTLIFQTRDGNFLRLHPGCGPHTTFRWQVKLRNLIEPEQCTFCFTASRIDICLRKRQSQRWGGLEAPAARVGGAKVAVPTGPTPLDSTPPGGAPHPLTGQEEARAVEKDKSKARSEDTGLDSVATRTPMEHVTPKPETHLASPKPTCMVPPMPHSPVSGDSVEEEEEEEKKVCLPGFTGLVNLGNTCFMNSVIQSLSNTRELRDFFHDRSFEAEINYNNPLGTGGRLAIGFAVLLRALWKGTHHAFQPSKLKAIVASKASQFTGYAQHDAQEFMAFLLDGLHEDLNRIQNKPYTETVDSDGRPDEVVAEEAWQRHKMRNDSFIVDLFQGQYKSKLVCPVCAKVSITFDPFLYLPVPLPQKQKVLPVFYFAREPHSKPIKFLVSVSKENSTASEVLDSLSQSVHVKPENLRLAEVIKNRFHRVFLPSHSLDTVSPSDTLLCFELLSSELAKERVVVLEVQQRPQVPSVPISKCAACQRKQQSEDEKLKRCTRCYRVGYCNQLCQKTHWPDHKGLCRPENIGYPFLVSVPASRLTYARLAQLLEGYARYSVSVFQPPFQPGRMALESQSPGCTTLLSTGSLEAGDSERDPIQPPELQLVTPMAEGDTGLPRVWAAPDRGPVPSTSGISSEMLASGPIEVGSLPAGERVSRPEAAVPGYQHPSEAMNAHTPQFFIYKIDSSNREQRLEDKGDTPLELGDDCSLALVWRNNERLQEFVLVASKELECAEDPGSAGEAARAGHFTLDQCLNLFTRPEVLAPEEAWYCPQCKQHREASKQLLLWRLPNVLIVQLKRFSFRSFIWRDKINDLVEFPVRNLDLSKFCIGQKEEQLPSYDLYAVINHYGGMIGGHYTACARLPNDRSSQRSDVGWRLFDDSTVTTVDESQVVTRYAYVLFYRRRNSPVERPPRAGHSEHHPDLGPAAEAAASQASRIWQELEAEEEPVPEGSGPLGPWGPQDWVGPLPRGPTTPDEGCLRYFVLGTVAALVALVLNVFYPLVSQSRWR

SMILES | IC50 [nM]
C[C@H](CC(C)(F)F)C(=O)N1CC[C@@](O)(Cn2cnc(-c3ccccc3)cc2=O)C2(CCCC2)C1 | < 500
C[C@H](CC1CCC1)C(=O)N1CC[C@@](O)(Cn2cc(C(=O)N3CCNCC3)c(-c3ccccc3F)cc2=O)C2(CCCC2)C1 | < 500
C[C@H](CC1CCCCC1)C(=O)N1CCC(O)(Cn2cnc(-c3ccccc3CN)cc2=O)C(C)(C)C1 (stereo partly specified) | < 500
CC(n1cnc(-c2ccccc2)cc1=O)C1(O)CCN(C(=O)[C@H](C)CC2CCCCC2)CC1 (stereo partly specified) | ≤ 5000
C[C@H](CC1CCCCC1)C(=O)N1CC[C@@](O)(Cn2cc(C(=O)O)c(-c3ccccc3)cc2=O)C2(CCCC2)C1 | < 500
C[C@H](CC(F)(F)F)C(=O)N1CC[C@@](O)(Cn2cnc(-c3ccccc3)cc2=O)C2(CCCC2)C1 | < 500
CC(C)N(C)C(=O)c1cn(CC2(O)CCN(C(=O)[C@H](C)CC3CCCCC3)CC2(C)C)c(=O)cc1-c1ccccc1 (stereo partly specified) | < 500
C[C@@H]1CN(C(=O)c2cn(C[C@]3(O)CCN(C(=O)[C@H](C)CC4CCCCC4)CC3(C)C)c(=O)cc2-c2ccccc2)CCN1 | < 500
C[C@H](CC1CCCCC1)C(=O)N1CC[C@@](O)(Cn2cc(C(=O)N3CCNCC3)c(-c3ccccc3F)cc2=O)C2(CCCC2)C1 | < 500
CC(CN1CCCCC1)C(=O)N1CCC(O)(Cn2cc(C(=O)N(C)C)c(-c3ccccc3)cc2=O)C2(CCCC2)C1 (stereo unspecified) | ≥ 5000
C[C@H](CC1CCCCC1)C(=O)N1CCC(O)(Cn2cnc(-c3ccccc3)cc2=O)C(C)(C)C1 (stereo partly specified) | < 500
C[C@H](CC1CCCCC1)C(=O)N1CC[C@@](O)(Cn2cc(C(=O)N3CCNCC3)c(-c3ccccc3F)cc2=O)C(C)(C)C1 | < 500
C[C@H](CC1CCCCC1)C(=O)N1CC[C@@](O)(Cn2cc(C(=O)N(C)C)c(-c3ccccc3)cc2=O)C(C)(C)C1 | < 500
CN(C)C(=O)c1cn(C[C@]2(O)CCN(C(=O)[C@H](CO)CC(F)(F)F)CC23CCCC3)c(=O)cc1-c1ccccc1 | < 500
C[C@H](CC(F)(F)F)C(=O)N1CC[C@@](O)(Cn2cc(C(=O)N3CCNCC3)c(-c3ccccc3)cc2=O)C2(CCCC2)C1 | < 500
CC(Cc1ccccc1)C(=O)N1CCC(O)(Cn2cnc(-c3ccccc3F)cc2=O)CC1 (racemic) | ≥ 5000
COC[C@H](CC1CCCCC1)C(=O)N1CC[C@@](O)(Cn2cc(C(=O)N(C)C)c(-c3ccccc3)cc2=O)C(C)(C)C1 | < 500
C[C@H](CC1CCCCC1)C(=O)N1CC[C@@](O)(Cn2cc(C(=O)N3CCOCC3)c(-c3ccccc3)cc2=O)C2(CCCC2)C1 | < 500
C[C@H](CC(F)(F)F)C(=O)N1CC[C@@](O)(Cn2cnc(-c3ccccc3F)cc2=O)C2(CCCC2)C1 | < 500
C[C@H](CC1CCCCC1)C(=O)N1CCC(O)(Cn2cnc(-c3cccc(CO)c3)cc2=O)C(C)(C)C1 (stereo partly specified) | < 500
C[C@H](CC(F)(F)F)C(=O)N1CC[C@@](O)(Cn2cnc(-c3cccc(F)c3)cc2=O)C2(CCCC2)C1 | < 500

SMILES | IC50 [nM]
C[C@H](CC1CCC1)C(=O)N1CC[C@@](O)(Cn2cc(C(=O)N3CCNCC3)c(-c3ccccc3)cc2=O)C2(CCCC2)C1 | < 500
C[C@H](CC1CCCCC1)C(=O)N1CCC(O)(Cn2cc(C(=O)N3CCOCC3)c(-c3ccccc3)cc2=O)C(C)(C)C1 (stereo partly specified) | < 500
O=C(CCc1ccccc1)N1CCC(O)(Cn2cnc(-c3ccccc3F)cc2=O)CC1 | ≥ 50000
C[C@H](CC1CCCCC1)C(=O)N1CCC(O)(Cn2cc(C(=O)N(C)C)c(N(C)C)cc2=O)C2(CCCC2)C1 (stereo partly specified) | < 500
C[C@H](CC1CCCCC1)C(=O)N1CC[C@@](O)(Cn2cc(C(=O)N(C)C)c(-c3ccccc3F)cc2=O)C2(CCCC2)C1 | < 500
C[C@H](CC1CCC1)C(=O)N1CC[C@@](O)(Cn2cc(C(=O)N(C)C)c(-c3ccccc3)cc2=O)C2(CCCC2)C1 | < 500
CCOC(=O)c1cn(C[C@]2(O)CCN(C(=O)[C@H](C)CC3CCCCC3)CC23CCCC3)c(=O)cc1-c1ccccc1 | < 500
C[C@H](CC1CCCCC1)C(=O)N1CCC(O)(Cn2cc(C(=O)N(C)C)c(Cl)cc2=O)C2(CCCC2)C1 (stereo partly specified) | < 500
C[C@H](CC1CCCCC1)C(=O)N1CCC(O)(Cn2cc(C(=O)N3CCNCC3)c(-c3ccccc3)cc2=O)C2(CCCCC2)C1 (stereo partly specified) | < 500
CN(C)C(=O)c1cn(CC2(O)CCN(C(=O)c3c[nH]nc3-c3ccccc3)CC23CCCC3)c(=O)cc1-c1ccccc1 (stereo unspecified) | ≤ 5000
C[C@H](CC1CCCCC1)C(=O)N1CC[C@@](O)(Cn2cc(C(=O)N3CCC(O)CC3)c(-c3ccccc3)cc2=O)C(C)(C)C1 | < 500
C[C@H](CC1CCCCC1)C(=O)N1CC[C@@](O)(Cn2cc(C(=O)N3CCN(C)CC3)c(-c3ccccc3)cc2=O)C2(CCCC2)C1 | < 500
C[C@H](CC1CCCCC1)C(=O)N1CC[C@@](O)(Cn2cc(C(=O)N(C)C)c(-c3ccccc3)cc2=O)C2(CCCC2)C1 | < 500
C[C@H](CC1CC1)C(=O)N1CCC(O)(Cn2cc(C(=O)N(C)C)c(-c3ccccc3)cc2=O)C2(CCCC2)C1 (stereo partly specified) | < 500
C[C@H](CC1CCCCC1)C(=O)N1CCC(O)(Cn2cnc(-c3ccc(CO)cc3)cc2=O)C(C)(C)C1 (stereo partly specified) | < 500
C[C@H](CC1CCCCC1)C(=O)N1CC[C@@](O)(Cn2cc(C(=O)N(C)C)c(C3CC3)cc2=O)C2(CCCC2)C1 | < 500
CC(OC1CCCCC1)C(=O)N1CCC(O)(Cn2cnc(-c3ccccc3F)cc2=O)C(C)(C)C1 (stereo unspecified) | ≥ 50000
CC(=O)N1CCN(C(=O)c2cn(CC3(O)CCN(C(=O)[C@H](C)CC4CCCCC4)CC3(C)C)c(=O)cc2-c2ccccc2)CC1 (stereo partly specified) | < 500
C[C@H](CC(F)(F)F)C(=O)N1CC[C@@](O)(Cn2cc(C(=O)N3CCOCC3)c(-c3ccccc3)cc2=O)C2(CCCC2)C1 | < 500
CC(C)N(C)C(=O)c1cn(C[C@]2(O)CCN(C(=O)[C@H](C)CC3CCCCC3)CC2(C)C)c(=O)cc1-c1ccccc1 | < 500
